# Patent publication US20230167073A1 (Teijin Pharma Limited, priority 2020, published 2023)
# Molecular target: T1, Human TRPC6 (Homo sapiens, UniProt Q9Y210)
# T1 construct: expressed in transfected cells
# T1 sequence (Q9Y210 1-931): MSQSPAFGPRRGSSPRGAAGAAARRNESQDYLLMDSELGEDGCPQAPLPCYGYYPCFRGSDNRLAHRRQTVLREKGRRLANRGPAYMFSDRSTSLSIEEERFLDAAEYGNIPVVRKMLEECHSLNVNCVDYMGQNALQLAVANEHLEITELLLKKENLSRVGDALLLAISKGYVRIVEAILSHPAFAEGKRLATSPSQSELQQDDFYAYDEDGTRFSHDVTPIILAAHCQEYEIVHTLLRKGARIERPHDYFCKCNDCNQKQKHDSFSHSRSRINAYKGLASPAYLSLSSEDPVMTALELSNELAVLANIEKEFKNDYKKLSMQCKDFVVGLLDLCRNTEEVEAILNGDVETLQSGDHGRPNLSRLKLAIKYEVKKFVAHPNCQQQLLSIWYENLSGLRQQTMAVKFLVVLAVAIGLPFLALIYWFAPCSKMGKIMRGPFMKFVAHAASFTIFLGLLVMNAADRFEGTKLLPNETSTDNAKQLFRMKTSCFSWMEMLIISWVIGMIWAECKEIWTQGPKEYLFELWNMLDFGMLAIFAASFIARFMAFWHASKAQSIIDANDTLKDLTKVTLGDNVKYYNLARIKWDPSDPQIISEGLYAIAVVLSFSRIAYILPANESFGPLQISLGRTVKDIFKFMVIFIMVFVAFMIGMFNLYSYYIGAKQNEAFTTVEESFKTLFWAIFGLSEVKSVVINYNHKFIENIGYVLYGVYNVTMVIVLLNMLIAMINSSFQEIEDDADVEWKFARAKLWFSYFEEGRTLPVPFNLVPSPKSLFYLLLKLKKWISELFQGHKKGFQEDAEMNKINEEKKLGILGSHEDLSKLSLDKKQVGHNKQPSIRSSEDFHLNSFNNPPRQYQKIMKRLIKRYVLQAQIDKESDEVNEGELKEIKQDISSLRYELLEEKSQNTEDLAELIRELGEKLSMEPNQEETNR
# Experiment: Evaluation of TRPC6 channel inhibitory activity (1), FLIPR Calcium 5 Assay Kit, OAG stimulation (Compound Nos. 1-1293)
# Type: cell-based
# Conditions: Human TRPC6 stably-expressing cells, OAG 30 μM, FLIPR Calcium 5 Assay Kit; read-out: Inhibitory activity (pIC50 class) (converted)
# Summary of the method: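 Readout is pIC50 from four-parameter logistic fitting of inhibition of the OAG-evoked (30 μM final) fluorescence calcium signal. Human TRPC6 stable cells are dye-loaded with probenecid, and compound is applied 20 min ahead of agonist.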
row,Structure (SMILES),IC50 [nM]
1,"N#Cc1ccc(-c2ccc(CCN)cc2)c(Oc2cc(N3CCOCC3)nc(C(F)(F)F)n2)c1 [Compound 113, 4-[4-(2-aminoethyl)phenyl]-3-[6-morpholin-4-yl-2-(trifluoromethyl)pyrimidin-4-yl]oxybenzonitrile]",< 10
2,"N#Cc1ccc(-c2ccc(CCN)cc2)c(Oc2cnnc(-c3ccccn3)c2)c1 [Compound 114, 4-[4-(2-aminoethyl)phenyl]-3-(6-pyridin-2-ylpyridazin-4-yl)oxybenzonitrile]",10 to 1000
3,"Cn1nc(-c2ccccc2)cc1Oc1cc(C#N)ccc1-c1ccc(CCN)cc1 [Compound 115, 4-[4-(2-aminoethyl)phenyl]-3-(2-methyl-5-phenylpyrazol-3-yl)oxybenzonitrile]",< 10
4,"N#Cc1ccc(-c2ccc(CCN)cc2)c(Oc2cnnc(-c3ccccc3F)c2)c1 [Compound 116, 4-[4-(2-aminoethyl)phenyl]-3-[6-(2-fluorophenyl)pyridazin-4-yl]oxybenzonitrile]",10 to 1000
5,"N#Cc1ccc(-c2ccc(CCN)cc2)c(Oc2cnnc(-c3ccccc3OC(F)(F)F)c2)c1 [Compound 117, 4-[4-(2-aminoethyl)phenyl]-3-[6-[2-(trifluoromethoxy)phenyl]pyridazin-4-yl]oxybenzonitrile]",10 to 1000
6,"COc1ccccc1-c1cc(Oc2cc(C#N)ccc2-c2ccc(CCN)cc2)cnn1 [Compound 118, 4-[4-(2-aminoethyl)phenyl]-3-[6-(2-methoxypheny)pyridazin-4-yl]oxybenzonitrile]",10 to 1000
7,"CC(=O)Nc1ccccc1-c1cc(Oc2cc(C#N)ccc2-c2ccc(CCN)cc2)cnn1 [Compound 119, N-[2-[5-[2-[4-(2-aminoethyl)phenyl]-5-cyanophenoxy]pyridazin-3-yl]phenyl]acetamide]",> 1000
8,"COC(=O)c1ccccc1-c1cc(Oc2cc(C#N)ccc2-c2ccc(CCN)cc2)cnn1 [Compound 120, methyl 2-[5-[2-[4-(2-aminoethyl)phenyl]-5-cyanophenoxy]pyridazin-3-yl]benzoate]",< 10
9,"N#Cc1ccc(-c2ccc(CCN)cc2)c(Oc2cnnc(-c3ccccc3C(=O)O)c2)c1 [Compound 121, 2-[5-[2-[4-(2-aminoethyl)phenyl]-5-cyanophenoxy]pyridazin-3-yl]benzoic acid]",> 1000
10,"N#Cc1ccc(-c2ccc(C(CN)C(F)(F)F)cc2)c(Oc2cnnc(N3CCOCC3)c2)c1 (stereo not shown) [Compound 122, 4-[4-(3-amino-1,1,1-trifluoropropan-2-yl)phenyl]-3-(6-morpholin-4-ylpyridazin-4-yl)oxybenzonitrile]",10 to 1000
11,"N#Cc1ccc(-c2ccc(CCN)cc2)c(Oc2cnnc(O[C@H]3CCC[C@H]3O)c2)c1 [Compound 123, 4-[4-(2-aminoethyl)phenyl]-3-[6-[(1S,2R)-2-hydroxycyclopentyl]oxypyridazin-4-yl]oxybenzonitrile]",10 to 1000
12,"N#Cc1ccc(-c2ccc(CCN)cc2)c(Oc2cnnc(O[C@H]3CCC[C@@H]3O)c2)c1 [Compound 124, 4-[4-(2-aminoethyl)phenyl]-3[6-[(1S,2S)-2-hydroxycyclopentyl]oxypyridazin-4-yl]oxybenzonitrile]",10 to 1000
13,"N#Cc1ccc(-c2ccc(CCN)cc2)c(Oc2cnnc(OC3CCOC3)c2)c1 (stereo not shown) [Compound 125, 4-[4-(2-aminoethyl)phenyl]-3-[6-(oxolan-3-yloxy)pyridazin-4-yl]oxybenzonitrile]",10 to 1000
14,"CC(C)(C)CCOc1cc(Oc2cc(C#N)ccc2-c2ccc(CCN)cc2)cnn1 [Compound 126, 4-[4-(2-aminoethyl)phenyl]-3-[6-(3,3-dimethylbutoxy)pyridazin-4-yl]oxybenzonitrile]",> 1000
15,"CC(C)(C)OCCOc1cc(Oc2cc(C#N)ccc2-c2ccc(CCN)cc2)cnn1 [Compound 127, 4-[4-(2-aminoethyl)phenyl]-3-[6-[2-[(2-methylpropan-2-yl)oxy]ethoxy]pyridazin-4-yl]oxybenzonitrile]",> 1000
16,"Cc1cc(N2CCOCC2)cc(Oc2cc(C#N)ccc2-c2ccc(CCN)cc2)n1 [Compound 128, 4-[4-(2-aminoethyl)phenyl]-3-(6-methyl-4-morpholin-4-ylpyridin-2-yl)oxybenzonitrile]",> 1000
17,"Cc1nc(Oc2cc(C#N)ccc2-c2nc(C)c(C(O)CN)s2)cc(N2CCOCC2)n1 (stereo not shown) [Compound 129, 4-[5-(2-amino-1-hydroxyethyl)-4-methyl-1,3-thiazol-2-yl]-3-(2-methyl-6-morpholin-4-ylpyrimidin-4-yl)oxybenzonitrile]",> 1000
18,"Cc1nc(Oc2cc(C#N)ccc2-c2ccc(CCN)cc2)cc(N2CCC[C@@H]2C#N)n1 [Compound 130, (2R)-1-[6-[2-[4-(2-aminoethyl)phenyl]-5-cyanophenoxy]-2-methylpyrimidin-4-yl]pyrrolidine-2-carbonitrile]",< 10
19,"Cc1nc(Oc2cc(C#N)ccc2-c2ccc3c(c2)CC(N)C3=O)cc(N2CCOCC2)n1 (stereo not shown) [Compound 131, 4-(2-Amino-1-oxo-2,3-dihydroinden-5-yl)-3-(2-methyl-6-morpholin-4-ylpyrimidin-4-yl)oxybenzonitrile]",> 1000
20,"Cc1nc(Oc2cc(C#N)ccc2-c2ccc3c(c2)CCC3N)cc(N2CCOCC2)n1 (stereo not shown) [Compound 132, 4-(1-amino-2,3-dihydro-1H-inden-5-yl)-3-(2-methyl-6-morpholin-4-ylpyrimidin-4-yl)oxybenzonitrile]",10 to 1000
21,"Cc1nc(Oc2cc(C#N)ccc2-c2ccc(C(CN)C(F)F)cc2)cc(N2CCOCC2)n1 (stereo not shown) [Compound 133, 4-[4-(3-amino-1,1-difluoropropan-2-yl)phenyl]-3-(2-methyl-6-morpholin-4-ylpyrimidin-4-yl)oxybenzonitrile]",< 10
22,"Cc1nc(Oc2cc(C#N)ccc2-c2ccc3c(c2)CC(N)C3O)cc(N2CCOCC2)n1 (stereo not shown) [Compound 134, 4-(2-amino-1-hydroxy-2,3-dihydro-1H-inden-5-yl)-3-(2-methyl-6-morpholin-4-ylpyrimidin-4-yl)oxybenzonitrile]",10 to 1000
23,"N#Cc1ccc(-n2ccc(CN)n2)c(Oc2cnnc(-c3ccccc3)c2)c1 [Compound 135, 4-[3-(aminomethyl)pyrazol-1-yl]-3-(6-phenylpyridazin-4-yl)oxybenzonitrile]",> 1000
24,"Cc1nc(Oc2cc(C#N)ccc2-n2cc(C(O)CN)cn2)cc(N2CCOCC2)n1 (stereo not shown) [Compound 136, 4-[4-(2-amino-1-hydroxyethyl)pyrazol-1-yl]-3-(2-methyl-6-morpholin-4-ylpyrimidin-4-yl)oxybenzonitrile]",10 to 1000
25,"N#Cc1ccc(-c2ccc(CCN)cc2)c(Oc2cnnc(C3CCCC3)c2)c1 [Compound 137, 4-[4-(2-aminoethyl)phenyl]-3-(6-cyclopentylpyridazin-4-yl)oxybenzonitrile]",< 10
26,"Cc1cc(Oc2cc(C#N)ccc2-c2ccc(CCN)cc2)cc(N2CCOCC2)n1 [Compound 138, 4-[4-(2-aminoethyl)phenyl]-3-(2-methyl-6-morpholin-4-ylpyridin-4-yl)oxybenzonitrile]",< 10
27,"N#Cc1ccc(-c2ccc(C(CN)C(F)F)cc2)c(Oc2cnnc(N3CCOCC3)c2)c1 (stereo not shown) [Compound 139, 4-[4-(3-amino-1,1-difluoropropan-2-yl)phenyl]-3-(6-morpholin-4 ylpyridazin-4-yl)oxybenzonitrile]",10 to 1000
28,"Cc1nc(Oc2cc(C#N)ccc2-n2cc(C(O)CN)cn2)cc(-c2ccc(F)cc2)n1 (stereo not shown) [Compound 140, 4-[4-(2-amino-1-hydroxyethyl)pyrazol-1-yl]-3-[6-(4-fluorophenyl)-2-methylpyrimidin-4-yl]oxybenzonitrile]",10 to 1000
